According to US10293004B2, “Butyrate-producing bacterium and use thereof” (KABUSHIKI KAISHA YAKULT HONSHA, priority 2014, dated 2019):

Experiments:
[1] = Evaluation of ability to produce butyrate from indigestible saccharides (Example 3)
Text: Galactooligosaccharide (GOS), maltitol, D-mannitol, lactitol, isomalt, isomaltulose, L-sorbose and D-sorbitol were used as indigestible saccharides. These indigestible saccharides used, except for GOS, were reagent grade. GOS used was commercially available Oligomate 55N (Yakult Pharmaceutical Industry Co., Ltd.) from which monosaccharide and lactose fractions (fractions digestible and absorbable by the upper gastrointestinal tract) had been removed using an activated carbon column. Specifically, a saccharide solution diluted with purified water was added to a column packed with activated carbon (manufactured by Wako Pure Chemical Industries, Ltd.) swollen in purified water, and the column was washed with a 2% ethanol solution, followed by the elution of an indigestible fraction with a 50% ethanol solution. The eluate was dried under reduced pressure, and the obtained GOS saccharide solution was used.
A. hadrus YIT 10092^T (DSM 3119^T), which is a type strain of A. hadrus (a typical human intestinal butyrate-producing bacterium), and two isolates were used.
Each of these bacterial strains was anaerobically cultured at 37° C. for 24 hours in a PYA medium containing 33 mM sodium acetate supplemented with 0.5% D-glucose (PYGA medium). The culture solution was inoculated at 1% to a PYA medium containing 0.5 (w/v) % of each indigestible saccharide (test medium), followed by anaerobic culture at 37° C. for 24 hours. After the completion of the culture, the organic acid concentration in the culture solution was analyzed by ion-exclusion HPLC. The analysis conditions were the same as those described above in Example 2. After the quantification of the organic acid concentration, the amount of butyrate produced from each indigestible saccharide and the ratio of butyrate to total short-chain fatty acids were calculated according to the following expressions. (Amount of butyrate produced)=(Amount of butyrate in the test medium after culture)−(Amount of butyrate in a PYA medium without each indigestible saccharide after culture) (Ratio of butyrate)=(Amount of butyrate in the test medium after culture)/((Amount of acetate+Amount of propionate+Amount of butyrate) in the test medium after culture)×100 (Expression 3)

[2] = Amount of butyrate produced by culture in PYA medium supplemented with acetate and lactate; settings: PYA medium (33 mM sodium acetate) with 40 mM sodium lactate, 37° C. 24 hours, minus PYA without lactate
Procedure: Each bacterial solution cultured in a PYGA liquid medium under the same conditions as those described in the preceding paragraph 1) was inoculated at 1% to a PYA medium containing 33 mM sodium acetate and further supplemented with 40 mM sodium lactate, followed by anaerobic culture at 37° C. for 24 hours. After the completion of the culture, the organic acid concentration in the culture solution was analyzed by ion-exclusion HPLC. The analysis conditions were the same as those described in the preceding paragraph 1). The amount of butyrate produced was calculated according to (Expression 2). Amount of butyrate produced=(Amount of butyrate produced by culture for 24 hours in a PYA medium supplemented with 40 mM sodium lactate)−(Amount of butyrate produced by culture for 24 hours in a PYA medium without 40 mM sodium lactate) (Expression 2)

mouse fresh feces = assay: Relationship between increase in cell count of YIT 12355 and butyrate concentration in mouse feces culture system
Procedure: 0.8 g of mouse fresh feces obtained 1 week after the start of the single dose test of Example 6 was collected into a sample tube and the tube was transferred into a glove box with the low-temperature and anaerobic state maintained. The feces were diluted with PBS anaerobically substituted in advance (final dilution: 12.5-fold), and a maltitol solution (final concentration: 0.5%) and/or a cultured bacterial solution of YIT 12355 (1% inoculated) was added thereto, followed by anaerobic culture at 37° C. for 24 hours. After the culture, the butyrate concentration was measured by ion-exclusion HPLC using an electric conductivity detector.

[3] = Biochemical properties: enzymatic activity (API-ZYM, Rapid ID32A API, API KENKI 20A); set-up: key: +: positive reaction; −: negative reaction; +^w: weak reaction
Text: Commercially available API-ZYM, Rapid ID32A API, and API KENKI 20A (SYSMEX bioMerieux Co., Ltd.) were used in the testing of biochemical properties of various bacterial strains. The testing method followed the product manuals.

[4] = Turbidity (OD660) after anaerobic culture of bacterial strains in PYGA, PYSA or PYXA medium
Procedure: A frozen stock solution of each bacterial strain (a 10% (w/v) skim milk-2% sodium glutamate solution in which bacterial cells were suspended) (cell count: 2.0 to 5.5×10^10 cells/mL) was thawed, and the solution was inoculated at 1% to 4 mL of a PY liquid medium supplemented with 33 mM sodium acetate and 0.5 (w/v) % glucose (PYGA medium), followed by anaerobic culture at 37° C. for 24 hours. After the culture, the culture solution was inoculated at 1% to a fresh PYGA medium, followed by anaerobic culture at 37° C. for 24 hours. After the culture, the turbidity (OD660) of the culture solution was measured. Then, the culture solution was inoculated at 1% to a PY medium containing 0.5 (w/v) % L-sorbose or D-xylitol and 33 mM sodium acetate (the medium containing L-sorbose: PYSA, and the medium containing D-xylitol: PYXA), followed by anaerobic culture at 37° C. for 24 hours. Then, the turbidity (OD660) was measured.

## A. hadrus (Eubacterium hadrum) YIT 12355 (NITE BP-01832)
[1]; PYA medium with 0.5 (w/v) % of each indigestible saccharide, versus type strain, FIGS. 3 and 4
  ability to utilize indigestible saccharides: more than the type strain YIT 10092^T
[1]; from indigestible saccharides, versus type strain, FIG. 3
  Amount of butyrate produced: larger
[1]; versus type strain YIT 10092^T, FIG. 4
  ratio of butyrate to total short-chain fatty acids: higher than that of the type strain YIT 10092^T
[2]
  Amount of butyrate produced: 19.9 mmol/L
Mouse fresh feces
  cell count of A. hadrus: increased
Mouse fresh feces; maltitol 0.5% and/or YIT 12355 1% inoculated, 37° C. 24 hours, FIG. 8
  butyrate concentration: increased
[3]
  Acid phosphatase: +
  Alkaline phosphatase: +
  Esterase (C4): +
  Naphthol-AS-B1-phosphohydrolase: +
  α-Glucosidase: +^w
  β-Galactosidase: +
  β-Galactosidase-6-phosphate: −
[4]; after anaerobic culture at 37° C. for 24 hours in PYGA liquid medium
  Turbidity (OD660): 3.55
[4]; anaerobic culture at 37° C. for 24 hours of 1% inoculum in PYSA (L-sorbose)
  Turbidity (OD660): 2.39
[4]; anaerobic culture at 37° C. for 24 hours of 1% inoculum in PYXA (D-xylitol)
  Turbidity (OD660): 1.47
